What follows are compounds tested against Skeletal Myofibril ATPase (Rabbit Psoas myofibrils) (assay: Skeletal Myofibril ATPase Assay). Conditions: PK/LDH-coupled NADH absorbance at 340 nm.
Format: biochemical
Method: Overview: Myosin ATPase activity was assessed by using a coupled reaction system, in which ADP generated by the myosin ATPase function was coupled to the disappearance of NADH through the pyruvate kinase/lactate dehydrogenase (PK-LDH) system. Myosin ATPase activity produces ADP, which was used as a substrate for PK to produce pyruvate and regenerate ATP. The pyruvate was then used as a substrate by LDH to oxidize NADH to NAD+. The rate of the reaction was monitored through the time-dependent disappearance of NADH using absorbance at 340 nm. Inhibition of ATPase activity by the assayed compounds was indicated by a reduced rate of NADH loss, relative to vehicle-treated controls, over the experimental time window. To assess the selectivity of the assayed compounds for skeletal myofibrils, the compounds were counter-screened in cardiac myofibrils.
Materials: The following stock solutions and reagents were used in the Skeletal Myofibril ATPase Assay:
Stock Solutions of pCa buffer. Combine PIPES, CaCl2, and EGTA solutions with 70 mL of water. Adjust pH to 7.0 and bring final volume to 100 mL.
Buffer A & Buffer B. Buffers were stored on ice until use.
Skeletal Myofibril ATPase Assay Procedure: BSA, ATP, NADH, PEP, and DTT solutions were thawed at room temperature, then transferred to ice. Pellet-frozen myofibrils (approximately twice the required volume) were transferred into a sufficiently large tube and capped. Myofibrils were thawed by rolling in a water bath for approximately 15 min at room temperature and cooled on ice. Buffers A and B were prepared by adjusting volumes as necessary for required number of wells and stored on ice. 0.5 μL of the compounds to be assayed were added into wells of a 384-well plate. Buffers A and B were mixed by inversion immediately prior to use, then 25 μL of each was dispensed using a Multidrop dispenser (Buffer A first, then Buffer B). The absorbance within the wells was measured at 340 nm, using a kinetic protocol in which the wells are read every 1.5-2 min for 1 h. The reaction rate was qualitatively assessed by subtracting the minimum absorbance value from the maximum value for each well, using either the SoftMax Pro plate reader software or a spreadsheet program such as Excel. Using GraphPad Prism 8.0, the data was normalized, with 100% activity defined as the absorbance change in the 1% DMSO vehicle wells and 0% assigned to no change in absorbance over the course of the experiment. The normalized data were fit to a variable-slope four-parameter logistic model, constraining the bottom to be 0 or greater. Compounds of Table 1 to 3 were tested and results of the assay appear in Table 4 herein. A=IC50 is less than or equal to 10 μM; B=IC50 is greater than 10 μM and less than 100 μM; C=IC50 is greater than 100 μM.
Compound `O=C(Cn1nc(-c2ccco2)ccc1=O)NCc1ccccc1F` [Compound 53, N-(2-fluorobenzyl)-2-(3-(furan-2-yl)-6-oxopyridazin-1(6H)-yl)acetamide] has an IC50 of over 100 µM.
`O=c1ccc(-c2nc(-c3cccc(F)c3)no2)cn1Cc1cccnc1` [Compound 102, 5-(3-(3-fluorophenyl)-1,2,4-oxadiazol-5-yl)-1-(pyridin-3-ylmethyl)pyridin-2(1H)-one] was tested, and the IC50 was at most 10 µM.
Compound `O=C(Cn1nc(-c2cccs2)ccc1=O)Nc1ccc2c(c1)OCO2` [Compound 47, N-(benzo[d][1,3]dioxol-5-yl)-2-(6-oxo-3-(thiophen-2-yl)pyridazin-1(6H)-yl)acetamide] has an IC50 of over 100 µM.
`O=c1ccc(-c2nc(-c3ccc(F)c(F)c3)no2)cn1Cc1cccnc1` [Compound 97, 5-(3-(3,4-difluorophenyl)-1,2,4-oxadiazol-5-yl)-1-(pyridin-3-ylmethyl)pyridin-2(1H)-one] gave an IC50 of at most 10 µM.
In the case of `Cc1cccc(-c2noc(-c3ccc(=O)n(Cc4cccnc4)c3)n2)c1` [Compound 94, 1-(pyridin-3-ylmethyl)-5-(3-(m-tolyl)-1,2,4-oxadiazol-5-yl)pyridin-2(1H)-one], the IC50 is reported as at most 10 µM.
Work on `Cc1cccc(-c2noc(-c3ccc(=O)n(Cc4cncc(Cl)c4)c3)n2)c1` [Compound 90, 1-((5-chloropyridin-3-yl)methyl)-5-(3-(m-tolyl)-1,2,4-oxadiazol-5-yl)pyridin-2(1H)-one] yielded an IC50 of at most 10 µM.
Work on `Cc1cccc(-c2noc(-c3ccc(=O)n(Cc4cccnc4C)c3)n2)c1` [Compound 118, 1-((2-methylpyridin-3-yl)methyl)-5-(3-(m-tolyl)-1,2,4-oxadiazol-5-yl)pyridin-2(1H)-one] yielded an IC50 of over 120 µM.
In the case of `O=c1ccc(-c2cccs2)nn1C/C=C/c1ccccc1` [Compound 62, 2-cinnamyl-6-(thiophen-2-yl)pyridazin-3(2H)-one], the IC50 is reported as over 100 µM.
`CCNC(=O)Cn1nc(-c2ncc(-c3cccc(Cl)c3)s2)ccc1=O` [Compound 25, 2-(3-(5-(3-chlorophenyl)thiazol-2-yl)-6-oxopyridazin-1(6H)-yl)-N-ethylacetamide] showed an IC50 of at most 10 µM.
In the case of `COc1cccc(-c2noc(-c3ccc(=O)n(Cc4cccnc4)c3)n2)c1` [Compound 101, 5-(3-(3-methoxyphenyl)-1,2,4-oxadiazol-5-yl)-1-(pyridin-3-ylmethyl)pyridin-2(1H)-one], the IC50 is reported as at most 10 µM.
`O=c1ccc(-c2nc(-c3cncc(Cl)c3)no2)cn1Cc1cccnc1` [Compound 99, 5-(3-(5-chloropyridin-3-yl)-1,2,4-oxadiazol-5-yl)-1-(pyridin-3-ylmethyl)pyridin-2(1H)-one] gave an IC50 of at most 10 µM.
`Cc1cccc(-c2noc(-c3ccc(=O)n(Cc4ccc(C#N)nc4)c3)n2)c1` [Compound 103, 5-((2-oxo-5-(3-(m-tolyl)-1,2,4-oxadiazol-5-yl)pyridin-1(2H)-yl)methyl)picolinonitrile] was tested, and the IC50 was at most 10 µM.
`CCCNC(=O)Cn1nc(-c2nc(-c3ccc(Cl)cc3)no2)ccc1=O` [Compound 51, 2-(3-(3-(4-chlorophenyl)-1,2,4-oxadiazol-5-yl)-6-oxopyridazin-1(6H)-yl)-N-propylacetamide] was tested, and the IC50 was at most 10 µM.
With `Cc1ccc(-c2ccc(=O)n(CC(=O)N[C@](C)(C#N)C(C)C)n2)s1` [Compound 36, (S)-N-(2-cyano-3-methylbutan-2-yl)-2-(3-(5-methylthiophen-2-yl)-6-oxopyridazin-1(6H)-yl)acetamide] the IC50 was 10 to 100 µM.
Work on `CCNC(=O)Cn1nc(-c2nc(-c3cccc(C(F)(F)F)c3)no2)ccc1=O` [Compound 11, N-ethyl-2-(6-oxo-3-(3-(3-(trifluoromethyl)phenyl)-1,2,4-oxadiazol-5-yl)pyridazin-1(6H)-yl)acetamide] yielded an IC50 of at most 10 µM.
In the case of `CCNC(=O)Cn1nc(-c2nc(-c3ccccc3)no2)ccc1=O` [Compound 16, N-ethyl-2-(6-oxo-3-(3-phenyl-1,2,4-oxadiazol-5-yl)pyridazin-1(6H)-yl)acetamide], the IC50 is reported as at most 10 µM.
`CCCCn1nc(-c2nc(-c3ccc(F)cc3)no2)ccc1=O` [Compound 76, 2-butyl-6-(3-(4-fluorophenyl)-1,2,4-oxadiazol-5-yl)pyridazin-3(2H)-one] gave an IC50 of at most 10 µM.
`O=c1ccc(-c2nc(-c3ccccc3)no2)cn1Cc1cccnc1` [Compound 107, 5-(3-phenyl-1,2,4-oxadiazol-5-yl)-1-(pyridin-3-ylmethyl)pyridin-2(1H)-one] was tested, and the IC50 was 10 to 100 µM.
In the case of `CCNC(=O)Cn1nc(-c2nc(-c3cc(F)cc(F)c3)no2)ccc1=O` [Compound 9, 2-(3-(3-(3,5-difluorophenyl)-1,2,4-oxadiazol-5-yl)-6-oxopyridazin-1(6H)-yl)-N-ethylacetamide], the IC50 is reported as at most 10 µM.
In the case of `Cc1cccc(-c2noc(-c3ccc(=O)n(Cc4cccnc4)c3)n2)c1` [Compound 84, 1-(pyridin-3-ylmethyl)-5-(3-(m-tolyl)-1,2,4-oxadiazol-5-yl)pyridin-2(1H)-one], the IC50 is reported as at most 10 µM.
With `CCNC(=O)Cn1nc(-c2noc(-c3cccc(Cl)c3)n2)ccc1=O` [Compound 31, 2-(3-(5-(3-chlorophenyl)-1,2,4-oxadiazol-3-yl)-6-oxopyridazin-1(6H)-yl)-N-ethylacetamide] the IC50 was at most 10 µM.
For `O=c1ccc(-c2cccs2)nn1Cc1ccccc1F` [Compound 58, 2-(2-fluorobenzyl)-6-(thiophen-2-yl)pyridazin-3(2H)-one], the IC50 was over 100 µM.
Work on `CCNC(=O)Cn1nc(-c2nc(-c3cccc(Cl)c3)no2)ccc1=O` [Compound 14, 2-(3-(3-(3-chlorophenyl)-1,2,4-oxadiazol-5-yl)-6-oxopyridazin-1(6H)-yl)-N-ethylacetamide] yielded an IC50 of at most 10 µM.
Compound `Cc1noc(-c2ccc(=O)n(Cc3cccc(F)c3)n2)n1` [Compound 72, 2-(3-fluorobenzyl)-6-(3-methyl-1,2,4-oxadiazol-5-yl)pyridazin-3(2H)-one] has an IC50 of 10 to 100 µM.
With `O=c1ccc(-c2nc(-c3cccc(F)c3)no2)cn1Cc1cncnc1` [Compound 106, 5-(3-(3-fluorophenyl)-1,2,4-oxadiazol-5-yl)-1-(pyrimidin-5-ylmethyl)pyridin-2(1H)-one] the IC50 was at most 10 µM.
`CCNC(=O)Cn1nc(-c2nc(-c3cccc(Cl)c3)co2)ccc1=O` [Compound 30, 2-(3-(4-(3-chlorophenyl)oxazol-2-yl)-6-oxopyridazin-1(6H)-yl)-N-ethylacetamide] showed an IC50 of at most 10 µM.
With `O=c1ccc(-c2nc(-c3ccccc3Cl)no2)cn1Cc1cccnc1` [Compound 110, 5-(3-(2-chlorophenyl)-1,2,4-oxadiazol-5-yl)-1-(pyridin-3-ylmethyl)pyridin-2(1H)-one] the IC50 was 10 to 100 µM.
`Cc1ccc(-c2ccc(=O)n(CC(=O)NC3CCCC3)n2)s1` [Compound 39, N-cyclopentyl-2-(3-(5-methylthiophen-2-yl)-6-oxopyridazin-1(6H)-yl)acetamide] showed an IC50 of 10 to 100 µM.
`CCNC(=O)Cn1nc(-c2nnc(C34CC(C3)C4)s2)ccc1=O` [Compound 32, 2-(3-(5-(bicyclo[1.1.1]pentan-1-yl)-1,3,4-thiadiazol-2-yl)-6-oxopyridazin-1(6H)-yl)-N-ethylacetamide] showed an IC50 of at most 10 µM.
With `O=C(Cn1nc(-c2nnc(-c3ccccn3)s2)ccc1=O)NC1CCC1` [Compound 22, N-cyclobutyl-2-(6-oxo-3-(5-(pyridin-2-yl)-1,3,4-thiadiazol-2-yl)pyridazin-1(6H)-yl)acetamide] the IC50 was at most 10 µM.
With `O=C(Cn1nc(-c2nnc(-c3cccc(Cl)c3)s2)ccc1=O)NC1CCC1` [Compound 23, 2-(3-(5-(3-chlorophenyl)-1,3,4-thiadiazol-2-yl)-6-oxopyridazin-1(6H)-yl)-N-cyclobutylacetamide] the IC50 was at most 10 µM.
`O=c1ccc(-c2nc(-c3cccnc3)no2)nn1Cc1ccccc1` [Compound 67, 2-benzyl-6-(3-(pyridin-3-yl)-1,2,4-oxadiazol-5-yl)pyridazin-3(2H)-one] was tested, and the IC50 was 10 to 100 µM.
Work on `COc1ncccc1Cn1cc(-c2nc(-c3cccc(C)c3)no2)ccc1=O` [Compound 121, 1-((2-methoxypyridin-3-yl)methyl)-5-(3-(m-tolyl)-1,2,4-oxadiazol-5-yl)pyridin-2(1H)-one] yielded an IC50 of over 120 µM.
`O=C(Cn1nc(-c2cccs2)ccc1=O)Nc1ccccc1Cl` [Compound 37, N-(2-chlorophenyl)-2-(6-oxo-3-(thiophen-2-yl)pyridazin-1(6H)-yl)acetamide] showed an IC50 of 10 to 100 µM.
`COc1ccc(NC(=O)Cn2nc(-c3cccs3)ccc2=O)cc1` [Compound 45, N-(4-methoxyphenyl)-2-(6-oxo-3-(thiophen-2-yl)pyridazin-1(6H)-yl)acetamide] showed an IC50 of 10 to 100 µM.
In the case of `O=c1ccc(-c2nc(-c3cccc(Cl)c3)no2)cn1Cc1cncc(F)c1` [Compound 86, 5-(3-(3-chlorophenyl)-1,2,4-oxadiazol-5-yl)-1-((5-fluoropyridin-3-yl)methyl)pyridin-2(1H)-one], the IC50 is reported as at most 10 µM.
